From patent publication US12637437B2, “Herbicidal compounds” (SYNGENTA CROP PROTECTION AG, priority 2021, dated 2026)

Tests used:
Format in all cases: in vivo
[1] = system: Ipomoea hederacea (IPOHE); test: Post-emergence herbicidal glasshouse test, IPOHE; details: 125 g/h, evaluated after 13 days, five-point scale
Protocol: (§1) Seeds of a variety of test species are sown in standard soil in pots (Lolium perenne (LOLPE), Amaranthus retoflexus (AMARE), Abutilon theophrasti (ABUTH), Setaria faberi (SETFA), Echinochloa crus-galli (ECHCG), Ipomoea hederacea (IPOHE)). After cultivation for one day (pre-emergence) or after 8 days cultivation (post-emergence) under controlled conditions in a glasshouse (at 24/16° C., day/night; 14 hours light; 65% humidity), the plants are sprayed with an aqueous spray solution derived from the formulation of the technical active ingredient in acetone/water (50:50) solution containing 0.5% Tween 20 (polyoxyethelyene sorbitan monolaurate, CAS RN 9005-64-5). Compounds are applied at 125 g/h unless otherwise indicated. The test plants are then grown in a glasshouse under controlled conditions in a glasshouse (at 24/16° C., day/night; 14 hours light; 65% humidity) and watered twice daily. After 13 days for pre and post-emergence, the test is evaluated for the percentage damage caused to the plant. The biological activities are shown in the following table on a five-point scale (5=80-100%; 4=60-79%; 3=40-59%; 2=20-39%; 1=0-19%). “—” denotes not tested on this species or data not captured.

[2] = system: Abutilon theophrasti (ABUTH); test: Post-emergence herbicidal glasshouse test, ABUTH; details: 125 g/h, evaluated after 13 days, five-point scale
Protocol: as §1

[3] = system: Amaranthus retoflexus (AMARE); test: Pre-emergence herbicidal glasshouse test, AMARE; details: 125 g/h, evaluated after 13 days, five-point scale
Protocol: as §1

[4] = system: Echinochloa crus-galli (ECHCG); test: Pre-emergence herbicidal glasshouse test, ECHCG; details: 125 g/h, evaluated after 13 days, five-point scale
Protocol: as §1

Setaria faberi (SETFA) [5] = test: Pre-emergence herbicidal glasshouse test, SETFA; details: 125 g/h, evaluated after 13 days, five-point scale
Protocol: as §1

Setaria faberi (SETFA) [6] = test: Post-emergence herbicidal glasshouse test, SETFA; details: 125 g/h, evaluated after 13 days, five-point scale
Protocol: as §1

[7] = system: Amaranthus retoflexus (AMARE); test: Post-emergence herbicidal glasshouse test, AMARE; set-up: dose or concentration left out as unconfirmed; details: evaluated after 13 days, five-point scale
Protocol: as §1

[8] = system: Ipomoea hederacea (IPOHE); test: Pre-emergence herbicidal glasshouse test, IPOHE; details: 125 g/h, evaluated after 13 days, five-point scale
Protocol: as §1

[9] = system: Abutilon theophrasti (ABUTH); test: Pre-emergence herbicidal glasshouse test, ABUTH; details: 125 g/h, evaluated after 13 days, five-point scale
Protocol: as §1

[10] = system: Echinochloa crus-galli (ECHCG); test: Post-emergence herbicidal glasshouse test, ECHCG; details: 125 g/h, evaluated after 13 days, five-point scale
Protocol: as §1

Row | Compound | percentage damage caused to the plant, POST Application IPOHE [1] | percentage damage caused to the plant, POST Application ABUTH [2] | percentage damage caused to the plant, PRE Application AMARE [3] | percentage damage caused to the plant, PRE Application ECHCG [4] | percentage damage caused to the plant, PRE Application SETFA (Setaria faberi (SETFA) [5]) | percentage damage caused to the plant, POST Application SETFA (Setaria faberi (SETFA) [6]) | percentage damage caused to the plant, POST Application AMARE [7] | percentage damage caused to the plant, PRE Application IPOHE [8] | percentage damage caused to the plant, PRE Application ABUTH [9] | percentage damage caused to the plant, POST Application ECHCG [10]
1 | CC(C)OC(=O)Nc1c(OC(F)(F)F)ccc(C(=O)Nc2nnnn2C)c1Cl [Compound 1.007] | 4 (4=60-79%) | 5 (5=80-100%) | 5 (5=80-100%) | 5 (5=80-100%) | 4 (4=60-79%) | 4 (4=60-79%) | 4 (4=60-79%) | 4 (4=60-79%) | 5 (5=80-100%) | 4 (4=60-79%)
2 | Cn1nnnc1NC(=O)c1ccc(OC(F)(F)F)c(NC(=O)OCC(F)F)c1Cl [Compound 1.011] | 4 (4=60-79%) |  | 5 (5=80-100%) | 5 (5=80-100%) | 5 (5=80-100%) | 5 (5=80-100%) | 4 (4=60-79%) | 4 (4=60-79%) |  | 5 (5=80-100%)
3 | COCCCOC(=O)Nc1c(OC(F)(F)F)ccc(C(=O)Nc2nnnn2C)c1Cl [Compound 1.019] | 4 (4=60-79%) |  | 3 (3=40-59%) | 5 (5=80-100%) | 2 (2=20-39%) | 5 (5=80-100%) | 5 (5=80-100%) | 4 (4=60-79%) |  | 5 (5=80-100%)
4 | COCCCOC(=O)Nc1c(OC(F)F)ccc(C(=O)Nc2nnnn2C)c1Cl [Compound 1.022] | 4 (4=60-79%) |  | 5 (5=80-100%) | 4 (4=60-79%) | 4 (4=60-79%) | 5 (5=80-100%) | 5 (5=80-100%) | 4 (4=60-79%) |  | 5 (5=80-100%)
5 | CCN(C(=O)OC)c1c(OC(F)F)ccc(C(=O)Nc2nnnn2C)c1Cl [Compound 1.043] | 4 (4=60-79%) |  | 5 (5=80-100%) | 5 (5=80-100%) | 5 (5=80-100%) | 5 (5=80-100%) | 5 (5=80-100%) | 3 (3=40-59%) |  | 5 (5=80-100%)
6 | Cn1nnnc1NC(=O)c1ccc(OC(F)(F)F)c(NC(=O)OC2CCOCC2)c1Cl [Compound 1.020] | 5 (5=80-100%) |  | 5 (5=80-100%) | 5 (5=80-100%) | 5 (5=80-100%) | 5 (5=80-100%) | 5 (5=80-100%) | 5 (5=80-100%) |  | 5 (5=80-100%)
7 | Cn1nnnc1NC(=O)c1ccc(OC(F)F)c(NC(=O)OC2CCOCC2)c1Cl [Compound 1.027] | 5 (5=80-100%) |  | 4 (4=60-79%) | 4 (4=60-79%) | 5 (5=80-100%) | 5 (5=80-100%) | 5 (5=80-100%) | 4 (4=60-79%) |  | 5 (5=80-100%)
8 | CC(C)OC(=O)Nc1c(OC(F)F)ccc(C(=O)Nc2nnnn2C)c1Cl [Compound 1.017] | 5 (5=80-100%) |  | 5 (5=80-100%) | 5 (5=80-100%) | 5 (5=80-100%) | 5 (5=80-100%) | 5 (5=80-100%) | 4 (4=60-79%) |  | 5 (5=80-100%)
9 | CCOC(=O)N(CC)c1c(OC(F)F)ccc(C(=O)Nc2nnnn2C)c1Cl [Compound 1.044] | 4 (4=60-79%) |  | 5 (5=80-100%) | 5 (5=80-100%) | 4 (4=60-79%) | 5 (5=80-100%) | 5 (5=80-100%) | 2 (2=20-39%) |  | 5 (5=80-100%)
10 | COC(=O)Nc1c(OC(F)(F)F)ccc(C(=O)Nc2nnnn2C)c1C [Compound 1.035] | 3 (3=40-59%) |  | 5 (5=80-100%) | 5 (5=80-100%) | 5 (5=80-100%) | 5 (5=80-100%) | 5 (5=80-100%) | 3 (3=40-59%) |  | 5 (5=80-100%)
11 | Cn1nnnc1NC(=O)c1ccc(OC(F)F)c(N2CCOC2=O)c1Cl [Compound 1.037] | 5 (5=80-100%) |  | 5 (5=80-100%) | 5 (5=80-100%) | 5 (5=80-100%) | 5 (5=80-100%) | 5 (5=80-100%) | 5 (5=80-100%) |  | 5 (5=80-100%)
12 | Cn1nnnc1NC(=O)c1ccc(OC(F)(F)F)c(NC(=O)OCCS(C)(=O)=O)c1Cl [Compound 1.013] | 2 (2=20-39%) |  | 5 (5=80-100%) | 2 (2=20-39%) | 2 (2=20-39%) | 5 (5=80-100%) | 4 (4=60-79%) | 2 (2=20-39%) |  | 5 (5=80-100%)
